Data from paper doi:10.1101/2024.03.22.586364, “Development of quantitative high-throughput screening assays to identify, validate, and optimize small-molecule stabilizers of misfolded β-glucocerebrosidase with therapeutic potential for Gaucher disease and Parkinson’s disease” (bioRxiv, 2024).
Numbering of substitutions follows the chain as printed. Counter-ions that a name gives are not always drawn.

What was measured:
[1] = molecular target: T1, HiBiT-GCase-WT (Homo sapiens, UniProt P04062); experiment: HiBiT-GCase-WT lytic luminescence assay, H4 reporter cells; format: cell-based; settings: 24 h treatment, 1536-well format
T1 construct: expressed in transfected cells; host or cells: GBA1-KO H4 human neuroglioma cells; transgene stably integrated at the CLYBL safe-harbor locus by TALENs; CAG promoter
T1 sequence (P04062 40-536): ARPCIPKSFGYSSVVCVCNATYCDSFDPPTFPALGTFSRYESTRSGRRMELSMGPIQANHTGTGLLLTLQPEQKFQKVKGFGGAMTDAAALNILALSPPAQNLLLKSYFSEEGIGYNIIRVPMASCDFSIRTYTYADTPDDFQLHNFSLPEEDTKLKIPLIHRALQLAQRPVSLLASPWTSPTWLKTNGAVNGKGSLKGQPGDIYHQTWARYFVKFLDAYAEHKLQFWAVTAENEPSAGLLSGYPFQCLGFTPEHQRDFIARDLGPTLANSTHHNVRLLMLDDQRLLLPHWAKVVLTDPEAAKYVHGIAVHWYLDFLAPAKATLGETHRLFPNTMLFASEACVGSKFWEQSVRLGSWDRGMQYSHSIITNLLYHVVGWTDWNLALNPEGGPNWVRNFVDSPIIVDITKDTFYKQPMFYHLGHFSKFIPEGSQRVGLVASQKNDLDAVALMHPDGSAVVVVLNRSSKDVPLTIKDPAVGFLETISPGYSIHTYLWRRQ
Text: (§1) Figure 1. HiBiT-tagged GCase retains normal trafficking and function, enabling a high-throughput screening assay measuring cellular GCase levels. (A) GCase was labeled with a small (1.3 kDa), pro-luminescent, N-terminal HiBiT peptide tag immediately following the signal peptide (SP) sequence. (B) This HiBiT-GCase reporter (WT, N370S, or L444P) was engineered into a human Citrate Lyase Beta-Like (CLYBL) intragenic safe-harbor locus within a GBA1-KO H4 cell background using TALEN-enhanced integrative gene transfer. (C) Co-localization of GCase (green) with lysosomal marker LAMP1 (magenta) was determined by immunofluorescent staining. […] (G) GCase protein levels were quantitated by AlphaLISA (Amplified Luminescent Proximity Homogeneous Assay) utilizing a sandwich configuration of two monoclonal antibodies recognizing non-overlapping epitopes, hGCase-1/23 (which was biotinylated and associated with a streptavidin-coated donor bead) and hGCase-1/17 (which was directly conjugated to an acceptor bead). […] (H) GCase activity was measured in cell lysates using the fluorogenic substrate 4-methylumbelliferyl-β-D-glucopyranoside. Relative GCase activity was calculated by adjusting for protein concentration, correcting for GBA1-KO H4 cell background, and normalizing to GBA1-WT signal. […]

[2] = molecular target: T2, HiBiT-GCase-N370S (Homo sapiens, UniProt P04062, N409S); experiment: HiBiT-GCase-N370S lytic luminescence assay, H4 reporter cells; format: cell-based; settings: 24 h treatment, 1536-well format
T2 construct: expressed in transfected cells; host or cells: GBA1-KO H4 human neuroglioma cells; transgene stably integrated at the CLYBL safe-harbor locus by TALENs; CAG promoter
T2 sequence (P04062 40-536 N409S): T1 sequence (P04062 40-536) with N370S
Text: as §1

[3] = molecular target: T3, recombinant GCase-WT (Homo sapiens, UniProt P04062); experiment: Microscale thermophoresis (MST) target engagement; format: binding; settings: 50 mM sodium citrate buffer (pH 5.5); n = 2; read-out: dissociation constant (Kd)
T3 construct: purchased Bio-Techne 7410-GHB-020
T3 sequence (P04062 40-536): T1 sequence (P04062 40-536)
Method: Microscale thermophoresis (MST) experiments were performed using the Monolith NT.Automated instrument (NanoTemper Technologies). […] The recombinant GCase was further diluted with assay buffer (50 mM sodium citrate, pH 5.5) to 0.160 mg/mL and incubated (RT) for 30 min with 50 nM RED-tris-NTA 2nd Generation dye from the Monolith His-Tag Labeling Kit (Cat.#MO-L018; NanoTemper Technologies). The labeling reaction mixture was centrifuged for 10 min at 4°C and 15,000 × g to remove protein aggregates, after which the supernatant was diluted 2.5x with assay buffer. For each compound measured, a 12-point, 2x titration series of compound in DMSO was prepared; 1 μL of compound in DMSO from each point in the titration series was combined with 9 μL of assay buffer and 10 μL of labeled GCase in a 384-well plate, which was left standing for 30 min (RT). The resultant final concentration of labeled GCase was ~570 nM (in 5% DMSO).

[4] = test system: integrated stress response (ISR); parameters: method as in PMID 23741617; settings: read-out: IC50 (potency with which ISRIB modifies its target); cited from earlier work

Row | Kd [3] [µM] | Structure (SMILES) | effect on HiBiT-GCase-WT levels (in words) [1] | effect on HiBiT-GCase-N370S levels (in words) [2] | IC50 [4] [nM]
1 |  | C#Cc1ccc(NC(=O)c2cnn3c(C)cc(C)nc23)cc1 [NCGC758] | inactive in all three lines | inactive in all three lines | 
2 | 3.75 | O=C(COc1ccccc1C(=O)Nc1ccc(I)cc1)Nc1ccc(I)cc1 [NCGC00241326-01, N-(4-iodophenyl)-2-(2-((4-iodophenyl)amino)-2-oxoethoxy)benzamide] |  |  | 
3 |  | Nc1c(Br)cc(Br)cc1CN[C@H]1CC[C@H](O)CC1 [NCGC00371077-02, Ambroxol HCl] | increased HiBiT-GCase levels in all three lines | increased HiBiT-GCase levels in all three lines | 
4 |  | O=C(COc1ccc(Cl)cc1)N[C@H]1CC[C@H](NC(=O)COc2ccc(Cl)cc2)CC1 [NCGC00384174-12, trans-ISRIB] |  |  | 5
